The record followed here is patent publication US6251627A (priority 1998, dated 2001).

Assay [1] has as its target T1, K^b sol (soluble H-2K^b with murine β-2 microglobulin) (Mus musculus, UniProt P01901).
T1 construct: The cDNAs encoding K^b α1α2α3 domains (274 residues) and murine β-2 microglobulin (99 residues); made in house; host or cells: Drosophila S2/M3 cells, secreted into serum-free medium
T1 sequence (P01901 22-295): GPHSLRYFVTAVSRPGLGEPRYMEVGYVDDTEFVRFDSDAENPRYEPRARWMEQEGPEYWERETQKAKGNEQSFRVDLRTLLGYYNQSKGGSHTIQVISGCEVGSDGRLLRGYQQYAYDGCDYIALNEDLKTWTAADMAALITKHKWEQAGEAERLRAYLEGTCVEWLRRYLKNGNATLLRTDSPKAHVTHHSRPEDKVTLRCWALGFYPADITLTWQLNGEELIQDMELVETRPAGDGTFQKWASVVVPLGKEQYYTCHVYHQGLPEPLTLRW
T1 sequence (P01887 21-119 partner): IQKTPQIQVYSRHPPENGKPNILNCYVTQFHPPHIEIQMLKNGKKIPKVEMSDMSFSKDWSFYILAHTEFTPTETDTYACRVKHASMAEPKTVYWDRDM
As to the kind of experiment: biochemical. The class given is binding.

The test system of assay [2] is B3/CD8 T-cell hybridoma. The assay can be described thus: antigen presentation assay with B3/CD8 T-cell hybridoma (IL-2 by CTLL 3H thymidine incorporation). Conditions: Drosophila cells transfected with K^b/β2; peptide in culture medium or protein osmotically loaded. The class given is cell-based, mouse. The protocol:
Osmotic loading of SC2 and 3T3 cells with ovalbumin protein was carried out as described by Moore, et al., Cell 54: 777-785 (1988). The assay procedure is as follows. In a 96-well dish, 1×10^5 Drosophila cells (with or without peptide/protein loaded) or 3T3 cells were cocultured with 1×10^5 B3/CD8 T-cell hybridoma cells in 200 μl of RPMI media supplemented with 10% fetal bovine serum. After 24 hours of incubation, 100 μl of the supernatant from these cultures was added to 100 μl of RPMI containing 5,000 CTLL cells. The cells were cocultured for 24 hours at 37° C. when 1 μCi of ^3 H thymidine (Amersham) was added. After a further incubation of 15 hours at 37° C., the incorporation of radiolabel into the CTLL cells was determined by scintillation counting.
Assays conducted with murine MHC also verified that the insect cells are capable of loading peptide onto the Class I molecules. Cells expressing as few as 200-500 MHC molecules containing a particular antigen can be detected by a T-cell. […] Upon antigenic stimulation, B3/CD8 produces IL-2, measured by ^3 H thymidine incorporation in IL-2-dependenT-cell line CTLL (Gillis, et al., J. Immunol. 120: 2027 91978)). Thus, by measuring the amount of IL-2 produced, one can assay for T-cell recognition. […]
Background: Dividing cells build labelled thymidine or BrdU into new DNA.

`CC(C)C[C@H](NC(=O)CNC(=O)[C@H](CCC(N)=O)NC(=O)[C@H](Cc1ccc(O)cc1)NC(=O)[C@@H](NC(=O)[C@H](Cc1ccc(O)cc1)NC(=O)CNC(=O)[C@@H](N)CCCNC(=N)N)C(C)C)C(=O)O` [VSV-8] displayed a dissociation constant (Kd) in assay [1] of 3.7 nM.

B1: ovalbumin (protein, UniProt P01012 2-386, looked up)
Ovalbumin: GSIGAASMEFCFDVFKELKVHHANENIFYCPIAIMSALAMVYLGAKDSTRTQINKVVRFDKLPGFGDSIEAQCGTSVNVHSSLRDILNQITKPNDVYSFSLASRLYAEERYPILPEYLQCVKELYRGGLEPINFQTAADQARELINSWVESQTNGIIRNVLQPSSVDSQTAMVLVNAIVFKGLWEKAFKDEDTQAMPFRVTEQESKPVQMMYQIGLFRVASMASEKMKILELPFASGTMSMLVLLPDEVSGLEQLESIINFEKLTEWTSSNVMEERKIKVYLPRMKMEEKYNLTSVLMAMGITDVFSSSANLSGISSAESLKISQAVHAAHAEINEAGREVVGSAEAGVDAASVSEEFRADHPFLFCIKHIATNAVLFFGRCVSP
notes: ovalbumin (Sigma) osmotically loaded into the cells
Regarding B1, the “T-cell recognition (IL-2 production by B3/CD8)” value in assay [2] is on record as “no recognition occurred”.

As a reminder, the Kd is the free concentration of one partner at which half of the binding sites on the other are occupied at equilibrium, for simple one-to-one binding. A lower Kd goes with higher affinity.
